The values below are quoted from earlier work in US10188676B2, “Anti-inflammatory solution” (Hypo-Stream Limited, priority 2013, dated 2019).

This data set has as its system alveolar osteitis (AO). The settings on record: 0.2% solution or gel, surgical site irrigation.

Turning to `[H]/N=C(\N/C(=N/[H])NCCCCCCNC(=N)NC(=N)Nc1ccc(Cl)cc1)Nc1ccc(Cl)cc1` [chlorhexidine], the “effectiveness against alveolar osteitis” value is reported as “Neither report found evidence of effectiveness”.
